Assay results taken from patent US9546157B2, “Asymmetric piperidinyl-substituted ureas as medicines” (Helsinn Healthcare SA, priority 2014, dated 2017).

Key:
GHSR1a [1] = molecular target: T1, GHSR1a (Homo sapiens, UniProt Q92847); test: Calcium FLIPR assay, GHSR-1a agonism; assay type: cell-based; set-up: Emax: unit not given here; conditions: HEK293/GHSR1a cells
T1 construct: expressed in transfected cells; host or cells: HEK293
How it was run: (§1)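 Antagonist potency reflects lowering of the 10 nM ghrelin calcium signal in HEK293/GHSR1a cells, with compound and ghrelin given at t=20 sec. Agonism was scored from the 2-minute fluorescence response to compound alone.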

[2] = Metabolic Stability (H = Human); assay type: in vitro ADME
[3] = Metabolic Stability (M = Mouse); assay type: in vitro ADME
C57BL/6J mice = test: Food intake test in mouse (GHSR1a antagonists); assay type: in vivo; conditions: for inhibition in vivo at 10 mg/kg / inhibition in vivo at 30 mg/kg: Mus musculus, ip; for inhibition in vivo at 10 mg/kg: i.p. 10 mg/kg
Description: Male C57BL/6J mice, 18-22 g body weight, were fasted overnight (16 h before compound administration) and placed in a regular light dark cycle (6:00-18:00 light/18:00-6:00 dark). After 1 wk acclimation, animals were sorted into two groups (n=6 each, 2 per cage) based on body weight. Animals in group one were be treated with vehicle and animals in group 2 were treated with the test agent (n=6 for each group). The cumulative food intake was evaluated at 1, 2, 4, 8 and 24 hrs after drug or vehicle treatment. Food intake was measured by subtracting uneaten food from the initial premeasured food.

GHSR1a [4] = molecular target: T1, GHSR1a; test: Calcium FLIPR assay, GHSR-1a antagonism (reduction of ghrelin response); assay type: cell-based; conditions: HEK293/GHSR1a cells, ghrelin 10 nM
How it was run: as §1

T1 sequence (Q92847 whole entry): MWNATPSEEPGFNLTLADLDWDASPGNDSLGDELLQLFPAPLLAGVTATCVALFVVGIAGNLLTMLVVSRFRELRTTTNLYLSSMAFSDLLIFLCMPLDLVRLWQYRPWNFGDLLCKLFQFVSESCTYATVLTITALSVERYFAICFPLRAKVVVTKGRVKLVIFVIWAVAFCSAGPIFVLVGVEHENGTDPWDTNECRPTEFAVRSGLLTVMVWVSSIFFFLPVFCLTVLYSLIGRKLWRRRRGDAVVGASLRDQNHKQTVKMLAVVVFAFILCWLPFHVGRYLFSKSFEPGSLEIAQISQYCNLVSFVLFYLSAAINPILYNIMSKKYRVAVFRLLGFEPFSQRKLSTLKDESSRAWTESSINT

Structure (SMILES)	EC50 (GHSR1a [1])	Metabolic Stability H [2]	Metabolic Stability M [3]	inhibition in vivo at 10 mg/kg (C57BL/6J mice; 1 h)	IC50 (GHSR1a [4])	other results
CC(NC(=O)N(C)C1CCN(C)CC1)c1ccc(-c2ccccc2)c(Cl)c1Cl (centres unmarked) [Compound H0509, 3-(1-(2,3-dichloro-[1,1′-biphenyl]-4-yl)ethyl)-1-methyl-1-(1-methylpiperidin-4-yl)urea]	2 µM	High H High M	High H High M	66%	29 nM	Emax (GHSR1a [1]): 1790
CN1CCC(N(C)C(=O)NC(CC2CC2)c2ccc(-c3cnccn3)c(Cl)c2Cl)CC1 (centres unmarked) [Compound H0722, 3-(2-cyclopropyl-1-(2,3-dichloro-4-(pyrazin-2-yl)phenyl)ethyl)-1-methyl-1-(1-methylpiperidin-4-yl)urea]	> 30 µM	High H High M	High H High M	90%	13 nM	Mouse Food Intake, result in words (C57BL/6J mice; PO 30 mg/kg): NSE
COc1ncc(-c2ccc(C(C)NC(=O)N(C)C3CCN(C)CC3)c(Cl)c2Cl)cn1 (centres unmarked) [Compound H0649, 3-(1-(2,3-dichloro-4-(2-methoxypyrimidin-5-yl)phenyl)ethyl)-1-methyl-1-(1-methylpiperidin-4-yl)urea]	0.064 µM	High H High M	High H High M	48%	18 nM	Emax (GHSR1a [1]): 1400; inhibition in vivo at 10 mg/kg (C57BL/6J mice; 2 h): 48%
C#Cc1ccc(C(C)NC(=O)N(C)C2CCN(C)CC2)c(Cl)c1Cl (single isomer, unassigned) [Compound H0677, 3-(1-(2,3-dichloro-4-ethynylphenyl)ethyl)-1-methyl-1-(1-methylpiperidin-4-yl)urea]	> 30 µM	High	Medium	–	5 nM	Mouse Food Intake, result in words (C57BL/6J mice; PO, dose not given): NSE
CN1CCC(N(C)C(=O)NC(c2ccc(-c3cncnc3)c(Cl)c2Cl)C(F)(F)F)CC1 (centres unmarked) [Compound H0686, 3-(1-(2,3-dichloro-4-(pyrimidin-5-yl)phenyl)-2,2,2-trifluoroethyl)-1-methyl-1-(1-methylpiperidin-4-yl)urea]	> 30 µM	Medium	High	–	14 nM	inhibition in vivo at 10 mg/kg (C57BL/6J mice; 2 h): 61%; inhibition in vivo at 10 mg/kg (C57BL/6J mice; 4 h): 61%; Mouse Food Intake, result in words (C57BL/6J mice; PO, dose not given): NSE
CC(NC(=O)N(C)C1CCN(C)CC1)c1ccc(Cl)c(Cl)c1Cl (centres unmarked) [Compound H0381, 1-methyl-1-(1-methylpiperidin-4-yl)-3-(1-(2,3,4-trichlorophenyl)ethyl)urea]	> 30 µM	Medium	Meidum	–	12 nM	Mouse Food Intake, result in words (C57BL/6J mice; i.p., dose not given): IP: No effect
CC(NC(=O)N(O)C1CCN(C)CC1)c1ccc(C(F)F)c(Cl)c1Cl (centres unmarked) [Compound H0621, 3-(1-(2,3-dichloro-4-(difluoromethyl)phenyl)ethyl)-1-hydroxy-1-(1-methylpiperidin-4-yl)urea]	0.002 µM	High H High M	High H High M	–	> 30000 nM	Emax (GHSR1a [1]): 3896; Mouse Food Intake, result in words (C57BL/6J mice; i.p., dose not given): No Effect
CC(=O)c1ccc(-c2ccc(C(C)NC(=O)N(C)C3CCN(C)CC3)c(Cl)c2Cl)s1 (centres unmarked) [Compound H0655, 3-(1-(4-(5-acetylthiophen-2-yl)-2,3-dichlorophenyl)ethyl)-1-methyl-1-(1-methylpiperidin-4-yl)urea]	> 30 µM	Medium H Medium M	Medium H Medium M	70%	12 nM	–
CC(NC(=O)N(C)C1CCN(C)CC1)c1ccc(-c2cccs2)c(Cl)c1Cl (centres unmarked) [Compound H0536, 3-(1-(2,3-dichloro-4-(thiophen-2-yl)phenyl)ethyl)-1-methyl-1-(1-methylpiperidin-4-yl)urea]	> 30 µM	Medium H Medium M	Medium H Medium M	–	3 nM	inhibition in vivo at 30 mg/kg (C57BL/6J mice; 1 h, i.p. 30 mg/kg): 76%
CC(NC(=O)N(C)C1CCN(C)CC1)c1ccc(-c2cccc(N)c2)c(Cl)c1Cl (centres unmarked) [Compound H0510, 3-(1-(3′-amino-2,3-dichloro-[1,1′-biphenyl]-4-yl)ethyl)-1-methyl-1-(1-methylpiperidin-4-yl)urea]	> 30 µM	High H High M	High H High M	–	14 nM	inhibition in vivo at 30 mg/kg (C57BL/6J mice; 4 h, i.p. 30 mg/kg): 35%
C[C@@H](NC(=O)N(C)C1CCN(C)CC1)c1ccc(-c2cncc(F)n2)c(Cl)c1Cl [Compound H0848, (R)-3-(1-(2,3-dichloro-4-(6-fluoropyrazin-2-yl)phenyl)ethyl)-1-methyl-1-(1-methylpiperidin-4-yl)urea]	> 30 µM	Medium	High	–	432 nM	Mouse Food Intake, result in words (C57BL/6J mice; PO 10 mg/kg + ANA (ANAM) 30 mg/kg mice): PO 10 mg/kg + ANA 30 mg/kg mice: NSE
CC(NC(=O)N(C)[C@@H]1CCN(C)CC1(C)C)c1ccc(-c2cnccn2)c(Cl)c1Cl (stereo partly drawn) [Compound H0824, 2-(1-(2,3-dichloro-4-(pyrazin-2-yl)phenyl)ethyl)-1-methyl-1-((R)-1,3,3-trimethylpiperidin-4-yl)urea]	> 30 µM	High	Medium	–	3 nM	Mouse Food Intake, result in words (C57BL/6J mice; PO 30 mg/kg + ANA mice): PO 30 mg/kg + ANA mice: NSE
CC(NC(=O)N(C)C1CCN(C)CC1)c1ccc(-c2ncccn2)c(Cl)c1Cl (centres unmarked) [Compound H0619, 3-(1-(2,3-dichloro-4-(pyrimidin-2-yl)phenyl)ethyl)-1-methyl-1-(1-methylpiperidin-4-yl)urea]	0.039 µM	High H High M	High H High M	34%	13 nM	inhibition in vivo at 10 mg/kg (C57BL/6J mice; 2 h): 34%
CC(NC(=O)N(Cc1ccc(CO)cc1)C1CCN(C)CC1)c1ccc(-c2cn[nH]c2)c(Cl)c1Cl (centres unmarked) [Compound H0553, 3-(1-(2,3-dichloro-4-(1H-pyrazol-4-yl)phenyl)ethyl)-1-(4-(hydroxymethyl)benzyl)-1-(1-methylpiperidin-4-yl)urea]	> 30 µM	Medium	Poor	57%	7 nM	–
CC(NC(=O)N(C)C1CCN(C)CC1)c1ccc(-c2ccc(C(N)=O)s2)c(Cl)c1Cl (centres unmarked) [Compound H0691, 5-(2,3-dichloro-4-(1-(3-methyl-3-(1-methylpiperidin-4-yl)ureido)ethyl)phenyl)thiophene-2-carboxamide]	> 30 µM	High H High M	High H High M	–	5 nM	inhibition in vivo at 10 mg/kg (C57BL/6J mice; 2 h): 62%; Mouse Food Intake, result in words (C57BL/6J mice; PO, dose not given): not active
COc1ccc(-c2ccc(C(C)NC(=O)N(C)C3CCN(C)CC3)c(Cl)c2Cl)cn1 (centres unmarked) [Compound H0511, 3-(1-(2,3-dichloro-4-(6-methoxypyridin-3-yl)phenyl)ethyl)-1-methyl-1-(1-methylpiepridin-4-yl)urea]	> 30 µM	Medium H Medium M	Medium H Medium M	–	98 nM	inhibition in vivo at 30 mg/kg (C57BL/6J mice; 1 h, i.p. 30 mg/kg): 94%
CC(NC(=O)N(C)C1CCN(C)CC1)c1ccc(-c2ccncc2)c(Cl)c1Cl (centres unmarked) [Compound H0497, 3-(1-(2,3-dichloro-4-(pyridin-4-yl)phenyl)ethyl)-1-methyl-1-(1-methylpiperidin-4-yl)urea]	> 30 µM	Medium H Medium M	Medium H Medium M	–	24 nM	Mouse Food Intake, result in words (C57BL/6J mice; i.p. 30 mg/kg): NSE (30 mg/kg)
C[C@H](NC(=O)N(C)C1CCN(C)C1)c1ccc(-c2cnccn2)c(Cl)c1Cl (single isomer, unassigned) [Compound H0862]	> 30 µM	High	medium	–	3 nM	Mouse Food Intake, result in words (C57BL/6J mice; PO (10 mg/kg) + ANA, mice, ANA dose not given): PO (10 mg/kg) + ANA: no activity in mice
CC(NC(=O)N(C)C1CCN(C)CC1)c1ccc(-c2cncc(N)c2)c(Cl)c1Cl (centres unmarked) [Compound H0704, 3-(1-(4-(5-aminopyridin-3-yl)-2,3-dichlorophenyl)ethyl)-1-methyl-1-(1-methylpiperidin-4-yl)urea]	> 30 µM	High	Medium	–	19 nM	inhibition in vivo at 10 mg/kg (C57BL/6J mice; 2 h): 32%
CC(NC(=O)N(C)C1CCN(C)CC1)c1ccc(C2CC2)c(Cl)c1Cl (centres unmarked) [Compound H0494, 3-(1-(2,3-dichloro-4-cyclopropylphenyl)ethyl)-1-methyl-1-(1-methylpiperidin-4-yl)urea]	0.066 µM	Medium	High	–	52 nM	Emax (GHSR1a [1]): 2996; Mouse Food Intake, result in words (C57BL/6J mice; i.p., dose not given): No Effect
